The experiment relates to CEM cells HIV-1 protection, formazan growth assay. Kind of experiment: NCI AIDS Antiviral Assay. To be noted: for IC50: measured here: growth of uninfected CEM cells. Summed up:
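Protection of CEM cells against HIV-1 was scored from cell growth (soluble formazan) across five concentrations, with parallel uninfected cells. Lack of protection may reflect toxicity.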

Each structure is given as a SMILES string. Values joined by “and” are separate entries in the source; they are usually repeats but may differ in a detail not shown here. Equal entries are not always repeated. Active and inactive are the calls of the source.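 How the source made its calls: active means compounds giving half or more protection of infected cells from virus-caused growth loss, again on retest; inactive means the rest.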

For `CCN(CC)C(=S)SS(=O)(=O)c1ccc(N)cc1`, the EC50 was more than 200 µM and the IC50 came out at 56.2 µM.
For `Cc1cccc(C)c1NC(=O)C(=O)CC(=O)CO`, in that order: more than 724 µM and more than 724 µM.
On to `Nc1c(N2CCOCC2)c(=O)nc2[nH]/c(=C\c3ccccc3O)c(=O)n12`, for which the EC50 was more than 200 µM and the IC50 was 97.7 µM.
Consider `CCCCCCCCCCCCCC(=O)CSCCNC(=O)CCNC(=O)[C@@H](O)C(C)(C)COP(=O)(O)OP(=O)(O)OCC1OC(n2cnc3c(N)ncnc32)C(O)C1OP(=O)(O)O` (stereo partly drawn), for which the result was inactive.
In the case of `Cc1nc2c(s/c(=N\N)n2-c2ccccc2)c(=O)n1C`, the EC50 is more than 13.2 µM and the IC50 was more than 13.2 µM.
Turning to `O=C(C(Cl)=C(N1CCCCC1)N1CCCCC1)C(Cl)Cl`, the EC50 was more than 200 µM and the IC50 is 174 µM.
Turning to `N#Cc1c(-c2ccc(NCc3nc4ccccc4[nH]3)cc2)cc(-c2ccco2)[nH]c1=O`, the EC50 is more than 200 µM and the IC50 amounted to 27.5 µM.
Take `O=C(O)CC1OCC=C2CN3CCC45c6ccccc6NC4C1C2CC35` (stereo not drawn): the EC50 was more than 85.1 µM, the result was inactive and the IC50 is more than 85.1 µM.
`O=C(CCc1ccccc1)On1c(-c2ccccc2)nc2ccccc2c1=S`: the EC50 is more than 200 µM and the IC50 worked out at 3.47 µM.
As for `O=C1/C(=C\c2ccccn2)c2ccccc2N1Cc1ccccc1`, the EC50 was more than 22.9 µM and the IC50 is 12.6 µM.
In the case of `CCCCCCCCCCCCCCCCOP(=O)(O)OCC(N)C(=O)O` (stereo not drawn), the EC50 was more than 200 µM and the IC50 came out at 18.6 µM.
As to `O=C(Nc1cc(C(F)(F)F)ccc1Cl)C(=O)C(C(=O)c1ccc2ccccc2c1)C1OC(=O)c2ccccc21` (stereo not drawn), the EC50 was more than 33.9 µM and the IC50 came to 18.6 µM.
With `COC(=O)C(=NNc1ccccc1[N+](=O)[O-])C(=O)OC`, the outcome was inactive.
Take `CC(C)=CCNc1nc(Cl)nc2nc[nH]c12`: the EC50 is more than 200 µM and the IC50 is 57.5 µM.
For `CC1=NN(c2ccccc2)C(=O)/C1=C1\SC(c2ccccc2)(c2ccccc2)c2ccccc21`, in that order: more than 200 µM and more than 200 µM.
For the compound `CN(C)/C=C/C(=CC=[N+](C)C)/C=C/N(C)C`, the outcome was inactive.
Turning to `CCC12C=CCN3CC[C@]4(C(=C(C(=O)OC)[C@@H]1Nc1ccn(C5OC(COC(C)=O)C(OC(C)=O)C5OC(C)=O)c(=O)n1)Nc1ccccc14)C32` (stereo partly drawn), the EC50 was more than 26.9 µM and the IC50 turned out to be 3.63 µM.
Consider `COc1ccc(/C=c2\c(=O)[nH]c3nc4ccccc4c(=O)n23)cc1`, for which the EC50 is more than 200 µM and the IC50 came out at 34.7 µM.
As for `CSC1(C)CC2C(CC1N1CCCCC1)C2(C)C` (stereo not drawn), the EC50 is more than 93.3 µM and the IC50 turned out to be 44.7 µM.
For `Cc1c2c(cn1C)NC(=O)CN=C2c1ccccc1`, in that order: more than 200 µM and more than 200 µM.
Turning to `COC(=O)NC(=O)c1cn(C2CCCCC2)c(=O)[nH]c1=O`, the EC50 is more than 123 µM and the IC50 was more than 123 µM.
On to `O=c1c2cc(-c3ccccc3)cnc2sn1-c1ccc(Br)cc1`, for which the EC50 was 110 µM and the IC50 was 186 µM.
With `CCOP(=O)(OCC)/C(C#N)=C/c1ccccc1`, the EC50 is more than 676 µM and the IC50 was more than 676 µM.
`O=C(Nc1ccc(Cl)c(Cl)c1)NN1CCCCCC1`: the result was inactive.
`O=C(Nc1ccccc1)Nc1ccc([N+](=O)[O-])cn1`: the EC50 was more than 200 µM and the IC50 was more than 200 µM.
With `Cc1c(O)c2ccccc2[nH]c1=O`, the EC50 is more than 200 µM and the IC50 is more than 200 µM.
As to `O=C(Oc1cc(=O)c(OC(=O)c2ccccc2)co1)c1ccccc1`, the EC50 is more than 200 µM and the IC50 is 110 µM.
For `CCN1CCC(O)(c2ccc(Oc3ccc(F)cc3)cc2)C(C(=O)c2ccc(Oc3ccc(F)cc3)cc2)C1` (stereo not drawn), in that order: more than 200 µM and 9.33 µM.
With `Oc1ccc([S+](c2ccc(O)cc2)c2ccc(O)cc2)cc1`, the EC50 was more than 145 µM and the IC50 is more than 145 µM.
As to `COc1cccc(C2c3cc4c(cc3OC(N3CCCCC3)C2C)OCO4)c1O` (stereo not drawn), the EC50 is more than 200 µM and the IC50 was 3.02 µM.
Take `CSc1nc(-c2ccc(Cl)cc2)c(C#N)c(=O)n1C1OC(COC(C)=O)C(OC(C)=O)C(OC(C)=O)C1OC(C)=O` (stereo not drawn): the EC50 was more than 132 µM; the IC50 was 32.4 µM and 89.1 µM.
On to `Cc1ccc(N=Nc2ccc(N(CCC#N)CCC#N)cc2C)c(Br)c1`, for which the EC50 is more than 3.55 µM and the IC50 was more than 3.55 µM.
As for `C=Cc1ccc(CC)cn1`, the EC50 was more than 200 µM and the IC50 was more than 200 µM.
With `O=C(Nc1ccc(S(=O)(=O)Nc2ccc(N=Nc3ccccc3)cc2)cc1)C(SC1=NC=NC2=NC=NC21)SC1=NC=NC2=NC=NC21` (stereo not drawn), the EC50 is more than 20 µM and the IC50 came out at 3.16 µM.
For `COC(=O)c1ccc(-n2c(C)nc(=O)c(-c3ccccc3)c2C)cc1`, in that order: more than 100 µM and more than 100 µM.
Taken in the same sequence, the figures for `C[C@H]1SC(c2ccc(Cl)cc2Cl)N(NC(=O)c2ccncc2)C1=O` (stereo partly drawn) were more than 200 µM and 33.9 µM.
As to `O=C(c1ccc(Cl)cc1)N(C(=S)N1CCN(c2ccccc2)CC1)c1ccccc1`, the EC50 was more than 12 µM and the IC50 was 11.2 µM.
On to `O=C(O)c1cocc1C(=O)O`, for which the outcome was inactive.
With `Cc1cn(C2CCN(c3ccccc3)O2)c(=O)[nH]c1=O` (stereo not drawn), the EC50 was more than 200 µM and the IC50 was more than 200 µM.
`Cc1cc(O)c(/C=N/C(=O)NN)c(=O)o1`: the EC50 is more than 200 µM and the IC50 is more than 200 µM.
For `O=C1C(=O)c2ccccc2C(O)=C1CCCCCCCCC1CCCCC1`, the EC50 was more than 200 µM and the IC50 was found to be 12 µM.
Regarding `CC(NC(=O)C(=O)N/N=C1\CC(c2ccccc2)Oc2ccccc21)c1ccccc1` (stereo not drawn), the outcome was inactive.
As for `CC/C=C\C/C=C\C1CC(=O)NCCCNCCCCN1` (stereo not drawn), the result was inactive.
`Nc1ncnc2c1ncn2C1CC(O)C(CO)(C(F)(F)F)O1` (stereo not drawn): the EC50 is more than 200 µM and the IC50 stood at 61.7 µM.
Taken in the same sequence, the figures for `C/C=C/C=C/c1cc2cc3c(c(O)c2c(=O)[nH]1)C1(CC3)C(O)=c2c(=O)c3c(=O)cc(OC)c(=O)c=3c(=O)c2=C1O` (stereo not drawn) were more than 200 µM and 5.89 µM.
For `O=c1c(O)c(-c2cc(O)c(O)c(O)c2)oc2cc(O)cc(O)c12`, in that order: more than 282 µM and 13.8 µM.
As to `Cc1ccc(C(=O)Nc2ccc(CP(=O)(O)O)cc2CP(=O)(O)O)cc1NC(=O)c1cccc(N)c1`, the EC50 was more than 200 µM and the IC50 was more than 200 µM.
Regarding `COC(=O)c1c(C#N)c(N)nc2c1CCC2`, the EC50 is more than 200 µM and the IC50 is more than 200 µM.
As for `COc1ccc2c(O)c(Oc3ccccc3)c(=O)oc2c1`, the EC50 was more than 200 µM and the IC50 is 145 µM.
Taken in the same sequence, the figures for `CC(=O)Oc1c(C)c2c(c3ccccc13)OC(C)(C)C2` were more than 200 µM and 24 µM.
For the compound `COc1ccc(C2=NN(C(=O)COc3ccc(Cl)cc3)C(O)(c3ccc(Cl)cc3)C2)cc1` (stereo not drawn), the EC50 is more than 11 µM and the IC50 is more than 11 µM.
Consider `Cc1c(CC#N)cc(C)c2c3c([nH]c12)-c1ccccc1CC3`, for which the EC50 was more than 26.3 µM and the IC50 is 19.1 µM.

By EC50 is commonly meant the concentration at which the effect is half-maximal. One may read the IC50 as the midpoint of a concentration-inhibition curve. A higher IC50 goes with weaker potency.
